We go through 5 compounds from ChEMBL document CHEMBL5724914, “Linking interpersonal differences in gut microbiota composition and drug biotransformation activity” (2024).

Series [1] in a line: The drug is tested on Z-028 corresponding to mouse gut metagenome with ENA study accession number: PRJEB37062 and ENA sample accession number: ERS12561827 for biotransformation under anaerobic condition. The drug concentrations were measured over 9 timepoints collected between 0 and 24 hours of incubation by liquid-chromatography-coupled mass spectrometry (LC–MS). To be noted: 2 µM.

The nature of series [2]: The drug is tested on Z-027 corresponding to metagenome with ENA study accession number: PRJEB37062 and ENA sample accession number: ERS12561826 for biotransformation under anaerobic condition. The drug concentrations were measured over 9 timepoints collected between 0 and 24 hours of incubation by liquid-chromatography-coupled mass spectrometry (LC–MS). The settings on record: 2 µM.

Series [3] can be described thus: The drug is tested on Z-018 corresponding to pig gut metagenome with ENA study accession number: PRJEB37062 and ENA sample accession number: ERS12561817 for biotransformation under anaerobic condition. The drug concentrations were measured over 9 timepoints collected between 0 and 24 hours of incubation by liquid-chromatography-coupled mass spectrometry (LC–MS). To be noted: 2 µM.

Series [4] is described as follows: The drug is tested on Z-013 corresponding to rabbit gut metagenome with ENA study accession number: PRJEB37062 and ENA sample accession number: ERS12561813 for biotransformation under anaerobic condition. The drug concentrations were measured over 9 timepoints collected between 0 and 24 hours of incubation by liquid-chromatography-coupled mass spectrometry (LC–MS). To be noted: 2 µM.

A short description of series [5]: The drug is tested on Z-010 corresponding to metagenome with ENA study accession number: PRJEB37062 and ENA sample accession number: ERS12561810 for biotransformation under anaerobic condition. The drug concentrations were measured over 9 timepoints collected between 0 and 24 hours of incubation by liquid-chromatography-coupled mass spectrometry (LC–MS). To be noted: 2 µM.

Series [6] can be described thus: The drug is tested on Z-003 corresponding to pig gut metagenome with ENA study accession number: PRJEB37062 and ENA sample accession number: ERS12561803 for biotransformation under anaerobic condition. The drug concentrations were measured over 9 timepoints collected between 0 and 24 hours of incubation by liquid-chromatography-coupled mass spectrometry (LC–MS). To be noted: 2 µM.

Series [7] in a line: The drug is tested on Z-002 corresponding to rabbit gut metagenome with ENA study accession number: PRJEB37062 and ENA sample accession number: ERS12561802 for biotransformation under anaerobic condition. The drug concentrations were measured over 9 timepoints collected between 0 and 24 hours of incubation by liquid-chromatography-coupled mass spectrometry (LC–MS). The settings on record: 2 µM.

Series [8] is described as follows: The drug is tested on WLS-086 corresponding to human gut metagenome with ENA study accession number: PRJEB37062 and ENA sample accession number: ERS12561752 for biotransformation under anaerobic condition. The drug concentrations were measured over 9 timepoints collected between 0 and 24 hours of incubation by liquid-chromatography-coupled mass spectrometry (LC–MS). The settings on record: 2 µM.

Series [9] can be described thus: The drug is tested on WLS-038 corresponding to human gut metagenome with ENA study accession number: PRJEB37062 and ENA sample accession number: ERS12561745 for biotransformation under anaerobic condition. The drug concentrations were measured over 9 timepoints collected between 0 and 24 hours of incubation by liquid-chromatography-coupled mass spectrometry (LC–MS). To be noted: 2 µM.

The nature of series [10]: The drug is tested on WLS-027 corresponding to human gut metagenome with ENA study accession number: PRJEB37062 and ENA sample accession number: ERS12561744 for biotransformation under anaerobic condition. The drug concentrations were measured over 9 timepoints collected between 0 and 24 hours of incubation by liquid-chromatography-coupled mass spectrometry (LC–MS). The settings on record: 2 µM.

For series [11] the following is noted: human gut metagenome, 24 h, 2 µM.
The conditions of series [12]: human gut metagenome, 24 h, 2 µM. The source holds these as a separate data set.
The conditions of series [13]: human gut metagenome, 24 h, 2 µM. This is another data set of the same source.
For series [14] the following is noted: human gut metagenome, 24 h, 2 µM. This is another data set of the same source.
For series [15] the following is noted: human gut metagenome, 24 h, 2 µM. This is another data set of the same source.
The conditions of series [16]: human gut metagenome, 24 h, 2 µM. This is another data set of the same source.
The conditions of series [17]: human gut metagenome, 24 h, 2 µM. This is another data set of the same source.
For series [18] the following is noted: human gut metagenome, 24 h, 2 µM. This is another data set of the same source.
The conditions of series [19]: human gut metagenome, 24 h, 2 µM. This is another data set of the same source.
The conditions of series [20]: human gut metagenome, 24 h, 2 µM. This is another data set of the same source.
Note: call rule not given here.

For the compound `COc1ccnc(C[S+]([O-])c2nc3ccc(OC(F)F)cc3[nH]2)c1OC` (stereo not given) [PANTOPRAZOLE], the “Bacterial Biotransformation” value in [1] is on record as “Compound metabolized”; in series [2] it was “Compound metabolized”; in series [3] it was “Compound metabolized”; in [4], “Compound metabolized”; in series [5] it was “Compound metabolized”; in [6] it was “Compound NOT metabolized”. The “Bacterial Biotransformation” value is “Compound NOT metabolized” in series [7]; “Compound metabolized” in series [8]; “Compound metabolized” in series [9]; “Compound metabolized” in series [10]; “Compound metabolized” in [11]; “Compound metabolized” in series [12]. Moreover, the “Bacterial Biotransformation” value in [13], in series [14], in series [15], in series [16], in series [17] and in [18] was “Compound metabolized” throughout. In addition, the “Bacterial Biotransformation” value in [19] and in series [20] was “Compound metabolized” in each case.
As to `O=C1N=C([O-])NC1(c1ccccc1)c1ccccc1.[Na+]` [PHENYTOIN SODIUM], the “Bacterial Biotransformation” value in [1], in series [2], in [3], in [4], in series [5] and in series [6] was “Compound NOT metabolized” in each case. For the same compound, the “Bacterial Biotransformation” value is listed as “Compound NOT metabolized” in series [7]; “Compound metabolized” in [8]; “Compound NOT metabolized” in series [9]; “Compound metabolized” in [10]; “Compound metabolized” in [11]; “Compound NOT metabolized” in series [12]. Further, the “Bacterial Biotransformation” value in series [13], in series [14], in series [15], in [16], in series [17] and in series [18] was “Compound metabolized” throughout. The “Bacterial Biotransformation” value in series [19] and in series [20] was “Compound metabolized” throughout.
For the compound `CN(CCOc1ccc(CC2SC(=O)NC2=O)cc1)c1ccccn1.O=C(O)/C=C\C(=O)O` (stereo not given) [ROSIGLITAZONE MALEATE], the “Bacterial Biotransformation” value in series [1], in series [2], in [3], in series [4], in [5] and in series [6] was “Compound NOT metabolized” each time. In addition, the “Bacterial Biotransformation” value is recorded as “Compound NOT metabolized” in series [7]; “Compound NOT metabolized” in series [8]; “Compound NOT metabolized” in [9]; “Compound metabolized” in [10]; “Compound NOT metabolized” in [11]; “Compound NOT metabolized” in [12]. Further, the “Bacterial Biotransformation” value in series [13] is recorded as “Compound NOT metabolized”; in series [14], “Compound metabolized”; in series [15], “Compound metabolized”; in series [16] it was “Compound metabolized”; in series [17], “Compound NOT metabolized”; in series [18], “Compound metabolized”. For the same compound, the “Bacterial Biotransformation” value in [19] and in series [20] was “Compound metabolized” each time.
As for `CC(C)c1nc(N(C)S(C)(=O)=O)nc(-c2ccc(F)cc2)c1/C=C/[C@@H](O)C[C@@H](O)CC(=O)[O-].CC(C)c1nc(N(C)S(C)(=O)=O)nc(-c2ccc(F)cc2)c1/C=C/[C@@H](O)C[C@@H](O)CC(=O)[O-].[Ca+2]` [ROSUVASTATIN CALCIUM], the “Bacterial Biotransformation” value in series [1], in series [2], in series [3], in [4], in series [5] and in series [6] was “Compound NOT metabolized” throughout. For the same compound, the “Bacterial Biotransformation” value is given as “Compound NOT metabolized” in series [7]; “Compound metabolized” in series [8]; “Compound NOT metabolized” in series [9]; “Compound metabolized” in [10]; “Compound metabolized” in series [11]; “Compound NOT metabolized” in [12]. Also, the “Bacterial Biotransformation” value in series [13] is “Compound NOT metabolized”; in series [14] it was “Compound metabolized”; in [15], “Compound metabolized”; in series [16] it was “Compound NOT metabolized”; in series [17], “Compound metabolized”; in [18], “Compound metabolized”. Further, the “Bacterial Biotransformation” value in series [19] and in series [20] was “Compound metabolized” throughout.
On to `O=C(O)c1cc(/N=N/c2ccc(S(=O)(=O)Nc3ccccn3)cc2)ccc1O` [SULFASALAZINE], for which the “Bacterial Biotransformation” value in series [1] is “Compound metabolized”; in series [2], “Compound NOT metabolized”; in series [3] it was “Compound metabolized”; in series [4], “Compound metabolized”; in series [5] it was “Compound metabolized”; in [6], “Compound metabolized”. The “Bacterial Biotransformation” value in series [7], in series [8], in [9], in [10], in [11] and in [12] was “Compound metabolized” each time. Further, the “Bacterial Biotransformation” value in series [13], in [14], in series [15], in [16], in series [17] and in series [18] was “Compound metabolized” each time. In addition, the “Bacterial Biotransformation” value in series [19] and in series [20] was “Compound metabolized” throughout.
